For 14 compounds, IC50 results are on record in patent US20230365571A1, “COMPOUNDS AND COMPOSITIONS AS Sppl2a INHIBITORS” (Novartis AG, priority 2020, published 2023).

Type in all cases: cell-based
The target of one test is T1, Sppl2a CD74 (Mus musculus, UniProt Q9JJF9).
T1 construct: Mouse whole blood Balb/c mice (sodium citrate) was ordered by Bioreclamation LLC; tissue Bioreclamation LLC
T1 sequence (Q9JJF9 26-523): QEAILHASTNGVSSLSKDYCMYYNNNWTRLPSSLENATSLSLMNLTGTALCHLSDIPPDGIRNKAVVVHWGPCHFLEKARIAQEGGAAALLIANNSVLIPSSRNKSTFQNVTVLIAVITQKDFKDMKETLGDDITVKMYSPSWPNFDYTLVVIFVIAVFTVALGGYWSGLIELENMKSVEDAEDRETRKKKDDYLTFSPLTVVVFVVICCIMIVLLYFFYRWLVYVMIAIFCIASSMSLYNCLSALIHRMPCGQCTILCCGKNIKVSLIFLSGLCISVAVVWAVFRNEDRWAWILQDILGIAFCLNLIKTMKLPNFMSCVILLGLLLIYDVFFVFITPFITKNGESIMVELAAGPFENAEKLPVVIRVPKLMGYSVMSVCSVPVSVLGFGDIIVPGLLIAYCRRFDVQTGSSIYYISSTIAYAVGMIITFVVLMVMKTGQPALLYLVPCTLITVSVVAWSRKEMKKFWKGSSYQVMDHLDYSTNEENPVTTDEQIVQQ
In words: CD74/p8 mouse whole blood assay, flow cytometry format. As to conditions: Balb/c mouse whole blood, 5 h, CD74 signal on gated live B cells. As to the method:
CD74/p8 Mouse Whole Blood Assay: Flow Cytometry Format
Mouse whole blood Balb/c mice (sodium citrate) was ordered by Bioreclamation LLC; USA. The blood was used the next day upon receipt (stored at 4° C.). 100 μL blood were transferred in 96 well format plate, where compounds, an 11 point dilutions down from 30 μM, to be tested were previously deposited. The plate was incubated for 5 h in the incubator at 37° C., 5% CO2 under continuous motion. After the incubation the blood was diluted with RBC Lysis Buffer (Amined; Cat. Nr 3-13F00-H or BD; Cat. Nr 555899). The solution was mixed by pipetting and incubated 10 min in the 37° C. incubator. The white blood cells were sedimented for 3 min at 2000 rpm. After removing the supernatant the cell pellet was resuspended and washed twice in RCB Buffer and kept≈ 5 min at room temperature, followed by a centrifugation for 2 min at 2000 rpm. The cell pellet was then resuspend in D-PBS and centrifuged twice. Finally, the cells were taken up in of D-PBS/0.5% inactivated fetal bovine serum/2 mM EDTA. The cell suspension was treated with Live/Dead fixable stain (Life Technologies, >470 nm version), B cells were identified by surface staining with an anti-B220 antibody coupled to APC fluorofor. After staining, the cells were extensively washed with PBS. The cells were permeabilized and fixed in FACS lysing buffer; (BD; #349202, dil 1:10 in water) and labelled with an anti CD74, FITC labelled antibody, washed once more with diluted FACS lysing buffer and spin down. The cell pellet was washed with D-PBS/0.5% inactivated fetal bovine serum/2 mM EDTA and PBS prior to the analysis in a flow cytometer. The compound concentrations were plotted against the intensity (medium fluorescence intensity) of the CD74 signal on the gated life B cell and IC50 were determined by fitting data for a 11 concentrations dose response.

Test [1] addresses T2, human SPPL2a (Homo sapiens, UniProt Q8TCT8).
T2 sequence (Q8TCT8 26-520): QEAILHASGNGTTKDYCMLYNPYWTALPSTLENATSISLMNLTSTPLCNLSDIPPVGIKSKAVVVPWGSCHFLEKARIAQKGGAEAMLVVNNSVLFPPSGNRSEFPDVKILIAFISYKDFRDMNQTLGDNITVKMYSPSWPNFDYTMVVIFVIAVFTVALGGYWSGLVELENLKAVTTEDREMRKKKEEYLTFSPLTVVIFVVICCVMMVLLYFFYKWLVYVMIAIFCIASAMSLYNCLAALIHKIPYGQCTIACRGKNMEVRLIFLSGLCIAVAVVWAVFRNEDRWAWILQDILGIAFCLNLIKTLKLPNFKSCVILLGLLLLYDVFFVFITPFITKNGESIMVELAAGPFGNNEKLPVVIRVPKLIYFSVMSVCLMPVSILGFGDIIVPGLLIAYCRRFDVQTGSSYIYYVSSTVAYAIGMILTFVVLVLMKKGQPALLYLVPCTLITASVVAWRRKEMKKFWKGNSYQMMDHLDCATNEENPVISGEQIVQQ
As to the kind of experiment: Sppl2a TL (translocation) imaging assay in U-2 OS cells. Details: expressed in transfected cells. Conditions: U-2 OS cells expressing human SPPL2a and EGFP-TNFα(aa1-76) NTF substrate; 24 h. In a few lines: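 U-2 OS cells stably expressing human SPPL2a plus doxycycline-induced EGFP-TNFα(aa1-76) NTF, treated 24 h at 37 °C with inhibitor (100 μM–1 nM, 11 points, 0.9% DMSO, 5 μg/mL doxycycline). Imaging of nuclear-minus-cytoplasmic EGFP intensity; % inhibition versus 0.5 μM LY-411,575 and DMSO, IC50 by nonlinear regression; CC50 from cell count.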

Test [2] concerns the target T2, human SPPL2a. In words: Sppl2a RGA (reporter gene assay) in HEK293 cells. As to conditions: NT-TNF-VP16-Gal4 substrate, Gal4-luciferase reporter, 24 h. Details: expressed in transfected cells; host or cells: HEK293 (transient). In short, it runs like this:
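HEK293 cells transiently co-transfected with human SPPL2a, NT-TNF-VP16-Gal4 substrate and Gal4-luciferase reporter, compound added within 5 h. After 24 h at 37 °C, luciferase luminescence measured; IC50 from concentration versus normalized luminescence.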

The structures appear in SMILES notation. pIC50: −log10 of the molar value.

Consider `CNC(=O)c1nc(C)c(C(=O)NC[C@@H](C)C(=O)N[C@@H]2C(=O)N3CCCN3Cc3ccccc32)s1` [Example 1, N^2,4-dimethyl-N^5—((R)-2-methyl-3-oxo-3-(((S)-11-oxo-2,3,10,11-tetrahydro-1H,5H-benzo[d]pyrazolo[1,2-a][1,2]diazepin-10-yl)amino)propyl)thiazole-2,5-dicarboxamide], for which the pIC50 against Sppl2a CD74 is 6.45; on human SPPL2a [1] it was 7.62; against human SPPL2a [2], 7.54.
On to `Cc1nc(NC(=O)C(C)C)sc1C(=O)NC[C@H](C(=O)N[C@@H]1C(=O)N2CCCN2Cc2ccccc21)C(F)(F)F` [Example 3, 2-Isobutyramido-4-methyl-N-((R)-3,3,3-trifluoro-2-(((S)-11-oxo-2,3,10,11-tetrahydro-1H,5H-benzo[d]pyrazolo [1,2-a][1,2]diazepin-10-yl)carbamoyl)pro-pyl)thiazole-5-carboxamide], for which the negative-log IC50 (pIC50) against Sppl2a CD74 was 7.00; against human SPPL2a [1] it was 9.30; at human SPPL2a [2], 8.52.
Take `Cc1nc(NC(=O)C(C)C)sc1C(=O)NC[C@@H](C)C(=O)N[C@@H]1C(=O)N2CCCN2Cc2ccccc21` [Example 4, 2-Isobutyramido-4-methyl-N-((R)-2-methyl-3-oxo-3-(((S)-11-oxo-2,3,10,11-tetrahydro-1H,5H-benzo[d]pyrazolo [1,2-a][1,2]diazepin-10-yl)amino)propyl) thiazole-5-carboxamide]: the pIC50 against Sppl2a CD74 was 7.00; against human SPPL2a [1], 9.00; against human SPPL2a [2] it was 7.92.
As for `Cc1nc(C(=O)NCC(F)F)sc1C(=O)NC[C@H](C(=O)N[C@@H]1C(=O)N2CCCN2Cc2ccccc21)C(F)(F)F` [Example 5, N^2-(2,2-Difluoroethyl)-4-methyl-N^5-((R)-3,3,3-trifluoro-2-(((S)-11-oxo-2,3,10,11-tetrahydro-1H,5H-benzo[d]pyrazolo [1,2-a][1,2]diazepin-10-yl)carbamoyl)pro-pyl)thiazole-2,5-dicarboxamide], the pIC50 against Sppl2a CD74 is 6.65; against human SPPL2a [1] it was 8.70; on human SPPL2a [2], 8.70.
`Cc1nc(C(=O)NCC(F)F)sc1C(=O)NC[C@H](C(=O)N[C@@H]1C(=O)N2CCCN2Cc2ccccc21)C1CC1` [Example 6, N^5-((R)-2-Cyclopropyl-3-oxo-3-(((S)-11-oxo-2,3,10,11-tetrahydro-1H,5H-benzo[d]pyrazolo [1,2-a][1,2]diazepin-10-yl)amino)propyl)-N^2-(2,2-difluoroethyl)-4-methylthiazole-2,5-dicarboxamide]: the pIC50 was 5.81 on Sppl2a CD74, 8.70 on human SPPL2a [1] and 8.70 against human SPPL2a [2].
Regarding `CCNC(=O)c1nc(C)c(C(=O)NC[C@H](C(=O)N[C@@H]2C(=O)N3CCCN3Cc3ccccc32)C(F)(F)F)s1` [Example 7, N^2-Ethyl-4-methyl-N^5-((R)-3,3,3-trifluoro-2-(((S)-11-oxo-2,3,10,11-tetrahydro-1H,5H-benzo[d]pyrazolo [1,2-a][1,2]diazepin-10-yl)carbamoyl)pro-pyl)thiazole-2,5-dicarboxamide], the pIC50 at Sppl2a CD74 was 6.92; at human SPPL2a [1], 8.52; at human SPPL2a [2] it was 8.70.
As to `Cc1cccc2nc(C[C@@H](C)C(=O)N[C@@H]3C(=O)N4CCCN4Cc4ccccc43)[nH]c12` [Example 112, (R)-2-methyl-3-(7-methyl-1H-benzo[d]imidazol-2-yl)-N-((S)-11-oxo-2,3,10,11-tetrahydro-1H,5H-benzo[d]pyrazolo[1,2-a][1,2]diazepin-10-yl)propanamide], the pIC50 on human SPPL2a [1] is 6.86; against human SPPL2a [2] it was 7.55.
The like results for `C[C@H](Cc1nc2cccc(Br)c2[nH]1)C(=O)N[C@@H]1C(=O)N2CCCN2Cc2ccccc21` [Example 113, (R)-3-(7-bromo-1H-benzo[d]imidazol-2-yl)-2-methyl-N-((S)-11-oxo-2,3,10,11-tetrahydro-1H,5H-benzo[d]pyrazolo[1,2-a][1,2]diazepin-10-yl)propanamide] were, in that order, 6.74 and 7.38.
Regarding `C[C@H](Cc1nc2cccc(C(F)(F)F)c2[nH]1)C(=O)N[C@@H]1C(=O)N2CCCN2Cc2ccccc21` [Example 114, (R)-2-methyl-N-((S)-11-oxo-2,3,10,11-tetrahydro-1H,5H-benzo[d]pyrazolo[1,2-a][1,2]diazepin-10-yl)-3-(7-(trifluoromethyl)-1H-benzo[d]imidazol-2-yl)propanamide], the pIC50 is 6.26 at human SPPL2a [1] and 7.20 on human SPPL2a [2].
On to `C[C@H](Cc1nc2c(Cl)cccc2[nH]1)C(=O)N[C@@H]1C(=O)N2CCCN2Cc2ccccc21` [Example 115, (R)-3-(4-chloro-1H-benzo[d]imidazol-2-yl)-2-methyl-N-((S)-11-oxo-2,3,10,11-tetrahydro-1H,5H-benzo[d]pyrazolo[1,2-a][1,2]diazepin-10-yl)propanamide], for which the pIC50 is 5.40 on human SPPL2a [1] and 6.64 on human SPPL2a [2].
Regarding `Cc1c(F)ccc2nc(C[C@@H](C)C(=O)N[C@@H]3C(=O)N4CCCN4Cc4ccccc43)[nH]c12` [Example 116, (R)-3-(6-fluoro-7-methyl-1H-benzo[d]imidazol-2-yl)-2-methyl-N-((S)-11-oxo-2,3,10,11-tetrahydro-1H,5H-benzo[d]pyrazolo[1,2-a][1,2]diazepin-10-yl)propanamide], the pIC50 at human SPPL2a [1] was 6.94; against human SPPL2a [2], 7.89.
Take `Cc1cc(F)cc2nc(C[C@@H](C)C(=O)N[C@@H]3C(=O)N4CCCN4Cc4ccccc43)[nH]c12` [Example 117, (R)-3-(5-fluoro-7-methyl-1H-benzo[d]imidazol-2-yl)-2-methyl-N-((S)-11-oxo-2,3,10,11-tetrahydro-1H,5H-benzo[d]pyrazolo[1,2-a][1,2]diazepin-10-yl)propanamide]: the pIC50 is 6.85 against human SPPL2a [1] and 7.68 on human SPPL2a [2].
On to `Cc1cc(F)cc2nc(C[C@@H](C)C(=O)N[C@@H]3C(=O)N4CCCN4Cc4c(F)cccc43)[nH]c12` [Example 118, (R)-N-((S)-6-fluoro-11-oxo-2,3,10,11-tetrahydro-1 H,5H-benzo[d]pyrazolo[1,2-a][1,2]diazepin-10-yl)-3-(5-fluoro-7-methyl-1H-benzo[d]imidazol-2-yl)-2-methylpropanamide], for which the pIC50 at human SPPL2a [1] is 6.94; at human SPPL2a [2] it was 7.72.
The corresponding values for `CCC[C@H](Cc1nc2cc(F)cc(C)c2[nH]1)C(=O)N[C@@H]1C(=O)N2CCCN2Cc2ccccc21` [Example 119, (R)-2-((5-fluoro-7-methyl-1H-benzo[d]imidazol-2-yl)methyl)-N-((S)-11-oxo-2,3,10,11-tetrahydro-1H,5H-benzo[d]pyrazolo[1,2-a][1,2]diazepin-10-yl)pentanamide] are 6.73 and 7.72.
